Assay results: PMC10053807, “Natural Lipid Extracts as an Artificial Membrane for Drug Permeability Assay: In Vitro and In Silico Characterization” (Pharmaceutics, 2023)

Tests used:
[1] = PAMPA permeability, liver polar lipid extract (LPLE) membrane; details: for Papp at 4 h, 100 μM: bovine, PAMPA
[2] = PAMPA permeability, heart polar lipid extract (HPLE) membrane; details: for Mean logPe / Mean Pe: Heart Polar lipid extract membrane, n=3; for Papp at 4 h, 100 μM: bovine, PAMPA, pH 7.4; for Mean Pe: * = not detected at acceptor side, value calculated from limit of detection
[3] = PAMPA permeability, liver total lipid extract (LTLE) membrane; details: for Mean logPe / Mean Pe: Liver total lipid extract membrane, n=3; for Papp at 4 h, 100 μM: bovine, PAMPA, pH 7.4; for Mean Pe: * = not detected at acceptor side, value calculated from limit of detection
[4] = PAMPA permeability, heart total lipid extract (HTLE) membrane; details: for Mean logPe / Mean Pe / Papp at 4 h, 100 μM: Heart total lipid extract membrane, n=3; for Papp at 4 h, 100 μM: bovine, PAMPA; for PAMPA permeability on HTLE: pH 7.4, 4 h, 37 °C, in words (PCA biplot, Figure 11B)
[5] = PAMPA permeability, brain total lipid extract (BTLE) membrane; details: for Mean logPe / Mean Pe: Brain total lipid extract membrane, n=3; for Mean Pe: * = not detected at acceptor side, value calculated from limit of detection; for Papp at 4 h, 100 μM: pig, PAMPA, pH 7.4
[6] = PAMPA permeability, brain polar lipid extract (BPLE) membrane; details: for Mean logPe / Mean Pe: Brain Polar lipid extract membrane, n=3; for Mean Pe: * = not detected at acceptor side, value calculated from limit of detection; for Papp at 4 h, 100 μM: pig, PAMPA, pH 7.4
[7] = pH 7.4, Mean Pe, n=3, * = not detected at acceptor side, value calculated from limit of detection
[8] = n=3, * = not detected at acceptor side, value calculated from limit of detection
[9] = * = not detected at acceptor side, value calculated from limit of detection
[10] = pH 7.4, Mean Pe, * = not detected at acceptor side, value calculated from limit of detection

Compound	Papp at 4 h, 100 μM [1, 7] [nm/s]	Mean logPe ([1]; n=3)	Mean logPe [2]	Papp at 4 h, 100 μM [2] [nm/s]	Mean logPe [3]	Papp at 4 h, 100 μM [3] [nm/s]	Mean logPe [4]	Mean logPe [5]	Mean Pe [5]	Mean Pe [2]	Mean Pe [3]	Mean Pe [4, 9]	Papp at 4 h, 100 μM ([4]; pH 7.4, Mean logPe) [nm/s]	Mean logPe [6]	Mean Pe [6]	Papp at 4 h, 100 μM [5] [nm/s]	Papp at 4 h, 100 μM [4, 10] [nm/s]	Papp at 4 h, 100 μM [6] [nm/s]	also measured
Nc1c(Br)cc(Br)cc1CN[C@H]1CC[C@H](O)CC1 [ambroxol]	544	-4.26	-4.21	618	-4.27	540	-4.40												
N=C(N)c1ccc(OCCCOc2ccc(C(=N)N)cc2)cc1 [propamidine]		< -6.12		< 7.41	< -6.12			< -6.13	< 0,73* 10-6 cm/s	< 0,73* 10-6 cm/s	< 0,76* 10-6 cm/s	< 0,76* 10-6 cm/s	< 7.59	< -6.12	< 0,76* 10-6 cm/s				Mean Pe [1, 8]: < 0,76* 10-6 cm/s
NC(=O)Cc1cccc(C(=O)c2ccccc2)c1N [nepafenac]	386	-4.44	-4.59	259	-4.14	729	-4.73	-4.61						-4.67		244	188	213	
ondansetron		-4.59	-4.86				-5.01	-4.63	23.49 10-6 cm/s	13.69 10-6 cm/s	57.25 10-6 cm/s	9.85 10-6 cm/s		-4.71	19.60 10-6 cm/s				Mean Pe [1, 8]: 25.69 10-6 cm/s
COCCc1ccc(OCC(O)CNC(C)C)cc1 (stereo not drawn) [metoprolol]	132		-4.96		-4.4	401	-5.04												Papp at 4 h, 100 μM ([1]; pH 7.4, Mean logPe, n=3): 195 nm/s
CC1Cc2ccccc2N1NC(=O)c1ccc(Cl)c(S(N)(=O)=O)c1 (stereo not drawn) [indapamide]	169	-4.77	-5.28	53.7	-4.61	245	-5.69	-5.29						-5.19		52.2	20.4	66	
CCn1cc(C(=O)O)c(=O)c2cc(F)c(N3CCNCC3)nc21 [enoxacin]	34.9	-5.46	-5.44	37	-5.37	42.5		-5.36					5.89	-5.12		44.8	4	75.8	
CC(CCc1ccccc1)NCC(O)c1ccc(O)c(C(N)=O)c1 (stereo not drawn) [labetalol]	190	-4.72	-5.08	83.8	-4.42	380	-5.27	-4.83						-4.65		150	53.7	222	
CC1=NNS(=O)(=O)c2c1ccc(Cl)c2Cl [PGY0072]	122	-4.91	-5.35	46.7	-4.66	222	-5.40	-5.50						-5.38	4.23 10-6 cm/s	32.3	42.6		PAMPA permeability on HTLE [4]: low
Cn1c(=O)c2c(ncn2C)n(C)c1=O [caffeine]	113	-4.95	-5.39	41.9	-4.7	203	-5.59	-5.71						-5.53		19.6	26.2	29.7	PAMPA permeability on HTLE [4]: low
CCn1cc(C(=O)O)c(=O)c2cc(F)c(N3CCNCC3)cc21 [norfloxacin]	71.7		-5.80	15.9		< 5.01			< 0,49* 10-6 cm/s		< 0,5* 10-6 cm/s	< 0,54* 10-6 cm/s	< 5.37	< -6.30	< 0,50* 10-6 cm/s	< 4.9			Papp at 4 h, 100 μM ([1]; pH 7.4, Mean logPe, n=3): 52.5 nm/s
CCOC(=O)[C@H](CCc1ccccc1)N[C@@H](C)C(=O)N1[C@H](C(=O)O)C[C@@H]2CCC[C@@H]21 [ramipril]	22.3								< 0,86* 10-6 cm/s	< 0,98* 10-6 cm/s		< 0,87* 10-6 cm/s			< 0,86* 10-6 cm/s				
NC(N)=Nc1nc(CSCCC(N)=NS(N)(=O)=O)cs1 [famotidine]		< -6.49		< 3.39		< 3.31		< -6.47	< 0,34* 10-6 cm/s	< 0,34* 10-6 cm/s	< 0,33* 10-6 cm/s	< 0,33* 10-6 cm/s	< 3.24	< -6.48	< 0,33* 10-6 cm/s				Mean Pe [1, 8]: < 0,33* 10-6 cm/s
CO/N=C(\C(=O)N[C@@H]1C(=O)N2C(C(=O)O)=C(COC(N)=O)CS[C@H]12)c1ccco1 [cefuroxime]	71	-5.17	< -5.89		< -5.94		-5.91	-5.89		< 1,28* 10-6 cm/s	< 1,14* 10-6 cm/s			-5.94		12.8	12.5	11.4	
CN1C(C(=O)Nc2ccccn2)=C(O)c2ccccc2S1(=O)=O [piroxicam]	103	-4.99			-4.79	163		-5.45					28.8	-5.64		35.7	19.2	23.5	PAMPA permeability on HTLE [4]: low
